Measurements as given in ChEMBL document CHEMBL2176953, “Synthesis and evaluation of α-thymidine analogues as novel antimalarials” (J Med Chem, 2012).

Legend:
Thymidylate kinase = biological target: T1, Thymidylate kinase (Plasmodium falciparum (isolate 3D7), UniProt Q8I4S1); test: Inhibition of recombinant Plasmodium falciparum TMPK using TMP as substrate by pyruvate kinase and lactate dehydrogenase enzyme coupled assay
T1 sequence (Q8I4S1 whole entry): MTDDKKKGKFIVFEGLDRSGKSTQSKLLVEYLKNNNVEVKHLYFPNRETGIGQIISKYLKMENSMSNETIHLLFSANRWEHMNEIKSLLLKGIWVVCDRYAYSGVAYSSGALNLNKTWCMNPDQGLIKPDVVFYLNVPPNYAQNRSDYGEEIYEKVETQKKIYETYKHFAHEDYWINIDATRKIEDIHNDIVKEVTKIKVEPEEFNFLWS

Plasmodium falciparum = test: Antimalarial activity against erythrocytic stages of Plasmodium falciparum 3D7 infected in human O positive RBC after 48 hrs by SYBR-green assay; type: functional, organism-based; settings: 3D7, 48 h
MRC5 = test: Cytotoxicity against human MRC5 cells; type: cell-based

Cc1cn([C@H]2C[C@H](O)[C@@H](CNC(=S)Nc3ccc(Cl)c(C(F)(F)F)c3)O2)c(=O)[nH]c1=O
Ki (Thymidylate kinase): 25 µM
EC50 (Plasmodium falciparum): 42 µM

COc1ccc(COc2ccc(NC(=O)NC[C@H]3O[C@@H](n4cc(C)c(=O)[nH]c4=O)C[C@@H]3O)cc2)cc1
CC50 (MRC5): > 50 µM
EC50 (Plasmodium falciparum): 3.8 µM

Cc1cn([C@H]2C[C@H](O)[C@@H](CNC(=O)Nc3ccc(OCc4ccccc4Cl)cc3)O2)c(=O)[nH]c1=O
CC50 (MRC5): > 50 µM
EC50 (Plasmodium falciparum): 0.41 µM

COc1ccc(COc2ccc(NC(=O)NC[C@H]3O[C@H](n4cc(C)c(=O)[nH]c4=O)C[C@@H]3O)cc2)cc1
EC50 (Plasmodium falciparum): 0.21 µM

Cc1cn([C@@H]2C[C@H](O)[C@@H](CNC(=O)Nc3ccc(OCc4ccc(C(C)(C)C)cc4)cc3)O2)c(=O)[nH]c1=O
CC50 (MRC5): > 50 µM
EC50 (Plasmodium falciparum): 1.8 µM

Cc1cn([C@@H]2C[C@H](O)[C@@H](CNC(=O)Nc3ccc(N4CCN(C)CC4)cc3)O2)c(=O)[nH]c1=O
EC50 (Plasmodium falciparum): 29 µM

Cc1cn([C@@H]2C[C@H](O)[C@@H](CNC(=O)Nc3ccccc3-c3ccccc3)O2)c(=O)[nH]c1=O
EC50 (Plasmodium falciparum): 96 µM

Cc1cn([C@@H]2C[C@H](O)[C@@H](CNC(=O)Nc3ccc([N+](=O)[O-])cc3)O2)c(=O)[nH]c1=O
Ki (Thymidylate kinase): 11 µM
EC50 (Plasmodium falciparum): 31 µM

Cc1ccc2nc(-c3ccc(NC(=O)NC[C@H]4O[C@@H](n5cc(C)c(=O)[nH]c5=O)C[C@@H]4O)cc3)sc2c1
EC50 (Plasmodium falciparum): > 200 µM

Cc1cn([C@H]2C[C@H](O)[C@@H](CNC(=O)Nc3ccc(N4CCN(C)CC4)cc3)O2)c(=O)[nH]c1=O
EC50 (Plasmodium falciparum): 26 µM

Cc1cn([C@H]2C[C@H](O)[C@@H](CNC(=O)Nc3ccc(OC4CCOCC4)cc3)O2)c(=O)[nH]c1=O
EC50 (Plasmodium falciparum): 33 µM

Cc1cn([C@H]2C[C@H](O)[C@@H](CNC(=O)Nc3ccccc3COc3ccccc3)O2)c(=O)[nH]c1=O
EC50 (Plasmodium falciparum): 48 µM

Cc1cn([C@H]2C[C@H](O)[C@@H](CNC(=O)Nc3cccc(COc4ccccc4)c3)O2)c(=O)[nH]c1=O
EC50 (Plasmodium falciparum): 148 µM

Cc1cn([C@H]2C[C@H](O)[C@@H](CNC(=O)Nc3cccc4ccccc34)O2)c(=O)[nH]c1=O
EC50 (Plasmodium falciparum): > 100 µM

Cc1cn([C@H]2C[C@H](O)[C@@H](CNC(=O)Nc3ccccc3-c3ccccc3)O2)c(=O)[nH]c1=O
EC50 (Plasmodium falciparum): 253 µM

Cc1cn([C@@H]2C[C@H](O)[C@@H](CNS(=O)(=O)c3ccc([N+](=O)[O-])cc3)O2)c(=O)[nH]c1=O
Ki (Thymidylate kinase): > 1000 µM
EC50 (Plasmodium falciparum): > 100 µM

Cc1cn([C@@H]2C[C@H](O)[C@@H](CNS(=O)(=O)c3ccc4ccccc4c3)O2)c(=O)[nH]c1=O
Ki (Thymidylate kinase): > 1000 µM
EC50 (Plasmodium falciparum): > 100 µM

Cc1cn([C@@H]2C[C@H](O)[C@@H](CNC(=O)c3ccc4ccccc4c3)O2)c(=O)[nH]c1=O
Ki (Thymidylate kinase): 541 µM
EC50 (Plasmodium falciparum): > 100 µM

Cc1cn([C@@H]2C[C@H](O)[C@@H](CNCc3ccc([N+](=O)[O-])cc3)O2)c(=O)[nH]c1=O
Ki (Thymidylate kinase): > 1000 µM
EC50 (Plasmodium falciparum): > 100 µM

CCOC(=O)CCNC(=O)NC[C@H]1O[C@H](n2cc(C)c(=O)[nH]c2=O)C[C@@H]1O
Ki (Thymidylate kinase): > 1000 µM
EC50 (Plasmodium falciparum): > 100 µM

Cc1cn([C@@H]2C[C@H](O)[C@@H](CNC(=O)NCc3ccccc3)O2)c(=O)[nH]c1=O
Ki (Thymidylate kinase): 198 µM
EC50 (Plasmodium falciparum): 64 µM

Cc1cn([C@@H]2C[C@H](O)[C@@H](CNC(=O)Nc3cccnc3)O2)c(=O)[nH]c1=O
Ki (Thymidylate kinase): > 1000 µM
EC50 (Plasmodium falciparum): > 100 µM

Cc1cn([C@@H]2C[C@H](O)[C@@H](CNC(=O)Nc3ccccc3)O2)c(=O)[nH]c1=O
Ki (Thymidylate kinase): 166 µM
EC50 (Plasmodium falciparum): 23 µM

Cc1cn([C@@H]2C[C@H](O)[C@@H](CNC(=O)Nc3ccccc3Cl)O2)c(=O)[nH]c1=O
Ki (Thymidylate kinase): 205 µM
EC50 (Plasmodium falciparum): 36 µM

Cc1cn([C@@H]2C[C@H](O)[C@@H](CNC(=S)Nc3ccc(Br)cc3)O2)c(=O)[nH]c1=O
Ki (Thymidylate kinase): 65 µM
EC50 (Plasmodium falciparum): 20 µM

COc1ccccc1NC(=O)NC[C@H]1O[C@H](n2cc(C)c(=O)[nH]c2=O)C[C@@H]1O
Ki (Thymidylate kinase): 138 µM
EC50 (Plasmodium falciparum): 44 µM

COc1cccc(NC(=O)NC[C@H]2O[C@H](n3cc(C)c(=O)[nH]c3=O)C[C@@H]2O)c1
Ki (Thymidylate kinase): 159 µM
EC50 (Plasmodium falciparum): 56 µM

Cc1cn([C@H]2C[C@H](O)[C@@H](CNS(=O)(=O)c3ccc([N+](=O)[O-])cc3)O2)c(=O)[nH]c1=O
Ki (Thymidylate kinase): > 1000 µM
EC50 (Plasmodium falciparum): > 100 µM

Cc1cn([C@H]2C[C@H](O)[C@@H](CNS(=O)(=O)c3ccc4ccccc4c3)O2)c(=O)[nH]c1=O
Ki (Thymidylate kinase): > 1000 µM
EC50 (Plasmodium falciparum): > 100 µM

Cc1cn([C@H]2C[C@H](O)[C@@H](CNC(=O)c3ccc4ccccc4c3)O2)c(=O)[nH]c1=O
Ki (Thymidylate kinase): > 1000 µM
EC50 (Plasmodium falciparum): > 100 µM

Cc1cn([C@H]2C[C@H](O)[C@@H](CNC(=O)c3ccc([N+](=O)[O-])cc3)O2)c(=O)[nH]c1=O
Ki (Thymidylate kinase): 302 µM
EC50 (Plasmodium falciparum): > 100 µM

CCOC(=O)CCNC(=O)NC[C@H]1O[C@@H](n2cc(C)c(=O)[nH]c2=O)C[C@@H]1O
Ki (Thymidylate kinase): 201 µM
EC50 (Plasmodium falciparum): > 100 µM

Cc1cn([C@H]2C[C@H](O)[C@@H](CNC(=O)NCc3ccccc3)O2)c(=O)[nH]c1=O
Ki (Thymidylate kinase): 64 µM
EC50 (Plasmodium falciparum): > 200 µM

Cc1cn([C@H]2C[C@H](O)[C@@H](CNC(=O)Nc3cccnc3)O2)c(=O)[nH]c1=O
Ki (Thymidylate kinase): 222 µM
EC50 (Plasmodium falciparum): > 100 µM

Cc1cn([C@H]2C[C@H](O)[C@@H](CNC(=O)Nc3ccccc3)O2)c(=O)[nH]c1=O
Ki (Thymidylate kinase): 60 µM
EC50 (Plasmodium falciparum): > 100 µM

Cc1cn([C@H]2C[C@H](O)[C@@H](CNC(=O)Nc3ccccc3Cl)O2)c(=O)[nH]c1=O
Ki (Thymidylate kinase): 52 µM
EC50 (Plasmodium falciparum): > 100 µM

Cc1cn([C@H]2C[C@H](O)[C@@H](CNC(=O)Nc3cccc(Cl)c3)O2)c(=O)[nH]c1=O
Ki (Thymidylate kinase): 28 µM
EC50 (Plasmodium falciparum): > 100 µM

Cc1cn([C@H]2C[C@H](O)[C@@H](CNC(=O)Nc3ccc(Cl)cc3)O2)c(=O)[nH]c1=O
Ki (Thymidylate kinase): 14 µM
EC50 (Plasmodium falciparum): > 200 µM

Cc1cn([C@H]2C[C@H](O)[C@@H](CNC(=S)Nc3ccc(Cl)cc3)O2)c(=O)[nH]c1=O
Ki (Thymidylate kinase): 37 µM
EC50 (Plasmodium falciparum): > 200 µM

Cc1cn([C@H]2C[C@H](O)[C@@H](CNC(=O)Nc3ccc(Br)cc3)O2)c(=O)[nH]c1=O
Ki (Thymidylate kinase): 15 µM
EC50 (Plasmodium falciparum): 30 µM

Cc1cn([C@H]2C[C@H](O)[C@@H](CNC(=S)Nc3ccc(Br)cc3)O2)c(=O)[nH]c1=O
Ki (Thymidylate kinase): 32 µM
EC50 (Plasmodium falciparum): 172 µM

COc1ccccc1NC(=O)NC[C@H]1O[C@@H](n2cc(C)c(=O)[nH]c2=O)C[C@@H]1O
Ki (Thymidylate kinase): 107 µM
EC50 (Plasmodium falciparum): > 100 µM

COc1cccc(NC(=O)NC[C@H]2O[C@@H](n3cc(C)c(=O)[nH]c3=O)C[C@@H]2O)c1
Ki (Thymidylate kinase): 69 µM
EC50 (Plasmodium falciparum): > 100 µM

COc1ccc(NC(=O)NC[C@H]2O[C@@H](n3cc(C)c(=O)[nH]c3=O)C[C@@H]2O)cc1
Ki (Thymidylate kinase): 50 µM
EC50 (Plasmodium falciparum): 69 µM

Cc1cn([C@H]2C[C@H](O)[C@@H](CNC(=O)Nc3ccc(C(C)(C)C)cc3)O2)c(=O)[nH]c1=O
Ki (Thymidylate kinase): 47 µM
EC50 (Plasmodium falciparum): 64 µM

Cc1cn([C@H]2C[C@H](O)[C@@H](CNC(=O)Nc3ccc(Cl)c(C(F)(F)F)c3)O2)c(=O)[nH]c1=O
Ki (Thymidylate kinase): 27 µM
EC50 (Plasmodium falciparum): 114 µM

Cc1cn([C@H]2C[C@H](O)[C@@H](CNC(=O)Nc3ccc([N+](=O)[O-])cc3)O2)c(=O)[nH]c1=O
Ki (Thymidylate kinase): 11 µM
EC50 (Plasmodium falciparum): 69 µM

Cc1cn([C@@H]2C[C@H](O)[C@@H](CNC(=S)Nc3ccc(N4CCOCC4)cc3)O2)c(=O)[nH]c1=O
EC50 (Plasmodium falciparum): 35 µM

Cc1cn([C@@H]2C[C@H](O)[C@@H](CNC(=O)c3ccc([N+](=O)[O-])cc3)O2)c(=O)[nH]c1=O
Ki (Thymidylate kinase): 541 µM
EC50 (Plasmodium falciparum): > 100 µM

Cc1cn([C@H]2C[C@H](O)[C@@H](CNCc3ccc([N+](=O)[O-])cc3)O2)c(=O)[nH]c1=O
Ki (Thymidylate kinase): 742 µM
EC50 (Plasmodium falciparum): > 100 µM
